# Counter-ions that a name gives are not always drawn.
# Assays:
# hygroscopicity = format: physicochemical; conditions: dihydrochloride salt
# Protocol: Following the procedure of Example 1 and using anthraquinone-2,7-disulfonylchloride, the title compound was obtained. Since the dihydrochloride was hygroscopic, it was converted to the free base by stirring it in a 10% sodium carbonate solution and recrystallized from a mixture of ether and hexane, m.p. 93°-95°.
# Vaccinia IHD = format: in vivo, mice; conditions: Vaccinia IHD 24 ID50, subcutaneous in tail; lesion scored on 7th day; subcutaneous treatment 28, 22, 4 hrs. pre- and 2, 20, 26 hrs. post-challenge; 2 to 50 mg. per kg.
# [1] = system: virus (Vaccinia IHD, Encephalomyocarditis, Influenza Ao (PR8), Influenza A/Equine (Prague), Mengo, Semliki Forest); format: in vivo, mice; conditions: prior art compound prepared and tested by applicants
# [2] = toxicity comparison of prior art compound with the compounds of the invention; conditions: prior art compound prepared and tested by applicants
# From the text: The closest prior art compound known to applicants is 1,5-bis[N-(4-diethylamino- 1-methylbutyl)sulfamoyl]-anthraquinone. The preparation of this compound is disclosed in I. Kh. Fel'dman, Z. Ovsyanaya, and E. Kozlov, Tr. Leningr. Khim.-Farmatsevt. Inst. 1960 (11), 48-53; CA 59: 11312.
structure (smiles),measurement,setting,value
CCCCN(CCCC)CCCNS(=O)(=O)c1ccc2c(c1)C(=O)c1cc(S(=O)(=O)NCCCN(CCCC)CCCC)ccc1C2=O [Example 3 dihydrochloride],hygroscopicity,hygroscopicity,hygroscopic
"CCCCN(CCCC)CCCNS(=O)(=O)c1ccc2c(c1)C(=O)c1cc(S(=O)(=O)NCCCN(CCCC)CCCC)ccc1C2=O [Example 6, 2,7-Bis-[N-(3-dibutylaminopropyl)sulfamoyl]-anthraquinone]",antiviral activity: lesions of treated animals compared to controls,Vaccinia IHD,fewer lesions
"CCN(CC)CCCC(C)NS(=O)(=O)c1cccc2c1C(=O)c1cccc(S(=O)(=O)NC(C)CCCN(CC)CC)c1C2=O (stereo not shown) [1,5-bis[N-(4-diethylamino-1-methylbutyl)sulfamoyl]-anthraquinone]",activity in antiviral tests used with the compounds of this invention,[1],inactive
same,toxicity relative to the compounds of this invention,[2],very much more toxic than the compounds of this invention

# Source: US3983248A (priority 1971, dated 1976)
